In patent publication US4694069A, “Kibdelosporangium aridum SK&F-AAD-609” (SmithKline Beckman Corporation, priority 1985, dated 1987):

Tests used:
[1] = system: rumen fermentation (strained rumen fluid); test: Rumen in vitro model; design: species or system steer; settings: for AAN (alpha amino nitrogen) / AMO (ammonia nitrogen) / LYS (lysine): 6 h; for % PR (percent propionate) / ACE (acetate) / BUT (butyrate) / ETOH (ethanol) / IBU (isobutyrate) / IVA (isovalerate) / PRO (propionate) / TOTAL (total volatile fatty acids) / VAL: 24 h
Procedure: The AAD-609 antibiotics were characterized in a rumen in vitro model to assess their potential as feed additives for ruminants. […] Specifically, strained rumen fluid (10 ml) obtained from a fistulated steer receiving a roughage ration, was mixed with 10 ml of nutrient broth (20 mg casein hydrolysate, 100 mg maltose, 15 mg urea, 400 mg solka floc (cellulose), 100 mg cellobiose and 100 mg starch) and with a selected growth promotant and incubated at 39° C., with oscillation, for 24 hours. […] Measurement of AMO, LYS and AAN was done with a sample taken from the incubation flask after 6 hours.

[2] = system: mixed intestinal microflora (cecum fluid); test: Swine in vitro model; settings: one level, up to 166.67 ppm; 4-5 h
Procedure: A swine in vitro model was used to characterize AAD-609 antibiotics as potential feed additives in swine and poultry. Mixed intestinal microflora were obtained from ileally-cannulated pigs. Virginiamycin, carbadox, AAD-216 and its components, and AAD-609 Complex (containing less than 5% AAD-216 antibiotics) were tested at one level. […] Glucose (GLU) was spared from microbial degradation. Volatile fatty acids (TOTAL) were the major end-product of microbial metabolism while lactic acid production were reduced. […] Since AAD-609 and AAD-216 give similar in vitro results, it is expected that AAD-609 has similar growth-promoting activity in monogastric animals. Also, the in vitro activity of AAD-609 is similar to the activity previously observed with bacitracin in this model.
The swine in vitro model was carried out by incubating 1.5 ml of cecum fluid, from a swine fed normal rations, mixed with 1.5 ml of a nutrient broth (3 mg casein hydrolysate, 30 mg maltose, 1.25 mg urea, 0.5 mg lysine, and 30 mg cellobiose) and with up to 166.67 parts per million of a selected growth promotant at 39° C., with oscillation, for about 4-5 hours. Results, percentage of control, are reported in the following table in which all abbreviations are as above except that LLA means L-lactate and ETOH means ethanol.

Compound: CNC1C(=O)NC2C(=O)NC(C(=O)NC3C(=O)NC4C(=O)NC(C(=O)NC(C(=O)O)c5cc(O)cc(OC6OC(CO)C(O)C(O)C6O)c5-c5cc4ccc5O)C(O)c4cc(Cl)c(c(Cl)c4)Oc4cc3cc(c4OC3OC(C(=O)O)C(O)C(O)C3NC(=O)CCCCCCCC(C)C)Oc3ccc(cc3Cl)C2O)c2cc(cc(O)c2Cl)Oc2cc1ccc2O (stereo not drawn) [AAD-216 B]
- AAN (alpha amino nitrogen) ([1]; 0.50 ppm): 121 % of control
- AMO (ammonia nitrogen) ([1]; 0.50 ppm): 96 % of control
- LYS (lysine) ([1]; 0.50 ppm): 96 % of control
- % PR (percent propionate) ([1]; 0.50 ppm): 104 % of control
- ACE (acetate) ([1]; 0.50 ppm): 107 % of control
- BUT (butyrate) ([1]; 0.50 ppm): 97 % of control
- ETOH (ethanol) ([1]; 0.50 ppm): 0 % of control
- IBU (isobutyrate) ([1]; 0.50 ppm): 108 % of control
- IVA (isovalerate) ([1]; 0.50 ppm): 94 % of control
- PRO (propionate) ([1]; 0.50 ppm): 108 % of control
- TOTAL (total volatile fatty acids) ([1]; 0.50 ppm): 103 % of control
- VAL ([1]; 0.50 ppm): 101 % of control
- AAN (alpha amino nitrogen) ([1]; 5.00 ppm): 140 % of control
- AMO (ammonia nitrogen) ([1]; 5.00 ppm): 93 % of control
- LYS (lysine) ([1]; 5.00 ppm): 120 % of control
- % PR (percent propionate) ([1]; 5.00 ppm): 141 % of control
- ACE (acetate) ([1]; 5.00 ppm): 106 % of control
- BUT (butyrate) ([1]; 5.00 ppm): 88 % of control
- ETOH (ethanol) ([1]; 5.00 ppm): 0 % of control
- IBU (isobutyrate) ([1]; 5.00 ppm): 95 % of control
- IVA (isovalerate) ([1]; 5.00 ppm): 67 % of control
- PRO (propionate) ([1]; 5.00 ppm): 153 % of control
- TOTAL (total volatile fatty acids) ([1]; 5.00 ppm): 108 % of control
- VAL ([1]; 5.00 ppm): 86 % of control
- AAN (alpha amino nitrogen) ([1]; 50.00 ppm): 178 % of control
- AMO (ammonia nitrogen) ([1]; 50.00 ppm): 107 % of control
- LYS (lysine) ([1]; 50.00 ppm): 132 % of control
- % PR (percent propionate) ([1]; 50.00 ppm): 144 % of control
- ACE (acetate) ([1]; 50.00 ppm): 103 % of control
- BUT (butyrate) ([1]; 50.00 ppm): 98 % of control
- ETOH (ethanol) ([1]; 50.00 ppm): 0 % of control
- IBU (isobutyrate) ([1]; 50.00 ppm): 123 % of control
- IVA (isovalerate) ([1]; 50.00 ppm): 111 % of control
- PRO (propionate) ([1]; 50.00 ppm): 159 % of control
- TOTAL (total volatile fatty acids) ([1]; 50.00 ppm): 110 % of control
- VAL ([1]; 50.00 ppm): 28 % of control
- % PR (percent propionate) [2]: 119 % of control
- ACE (acetate) [2]: 217 % of control
- BUT (butyrate) [2]: 154 % of control
- ETOH (ethanol) [2]: 104 % of control
- GLU (glucose) [2]: 180 % of control
- IBU (isobutyrate) [2]: 0 % of control
- IVA (isovalerate) [2]: 0 % of control
- LLA (L-lactate) [2]: 2 % of control
- LYS (lysine) [2]: 25 % of control
- PRO (propionate) [2]: 305 % of control
- TOTAL (total volatile fatty acids) [2]: 257 % of control
- VAL [2]: 0 % of control

Compound: CNC1C(=O)NC2C(=O)NC(C(=O)NC3C(=O)NC4C(=O)NC(C(=O)NC(C(=O)O)c5cc(O)cc(OC6OC(CO)C(O)C(O)C6O)c5-c5cc4ccc5O)C(O)c4cc(Cl)c(c(Cl)c4)Oc4cc3cc(c4OC3OC(C(=O)O)C(O)C(O)C3NC(=O)CCCCCCCCC(C)C)Oc3ccc(cc3Cl)C2O)c2cc(cc(O)c2Cl)Oc2cc1ccc2O (stereo not drawn) [AAD-216 C]
- AAN (alpha amino nitrogen) ([1]; 0.50 ppm): 96 % of control
- AMO (ammonia nitrogen) ([1]; 0.50 ppm): 99 % of control
- LYS (lysine) ([1]; 0.50 ppm): 78 % of control
- % PR (percent propionate) ([1]; 0.50 ppm): 105 % of control
- ACE (acetate) ([1]; 0.50 ppm): 94 % of control
- BUT (butyrate) ([1]; 0.50 ppm): 101 % of control
- ETOH (ethanol) ([1]; 0.50 ppm): 0 % of control
- IBU (isobutyrate) ([1]; 0.50 ppm): 123 % of control
- IVA (isovalerate) ([1]; 0.50 ppm): 123 % of control
- PRO (propionate) ([1]; 0.50 ppm): 105 % of control
- TOTAL (total volatile fatty acids) ([1]; 0.50 ppm): 100 % of control
- VAL ([1]; 0.50 ppm): 102 % of control
- AAN (alpha amino nitrogen) ([1]; 5.00 ppm): 136 % of control
- AMO (ammonia nitrogen) ([1]; 5.00 ppm): 98 % of control
- LYS (lysine) ([1]; 5.00 ppm): 102 % of control
- % PR (percent propionate) ([1]; 5.00 ppm): 148 % of control
- ACE (acetate) ([1]; 5.00 ppm): 96 % of control
- BUT (butyrate) ([1]; 5.00 ppm): 83 % of control
- ETOH (ethanol) ([1]; 5.00 ppm): 0 % of control
- IBU (isobutyrate) ([1]; 5.00 ppm): 86 % of control
- IVA (isovalerate) ([1]; 5.00 ppm): 56 % of control
- PRO (propionate) ([1]; 5.00 ppm): 148 % of control
- TOTAL (total volatile fatty acids) ([1]; 5.00 ppm): 100 % of control
- VAL ([1]; 5.00 ppm): 51 % of control
- AAN (alpha amino nitrogen) ([1]; 50.00 ppm): 166 % of control
- AMO (ammonia nitrogen) ([1]; 50.00 ppm): 106 % of control
- LYS (lysine) ([1]; 50.00 ppm): 144 % of control
- % PR (percent propionate) ([1]; 50.00 ppm): 149 % of control
- ACE (acetate) ([1]; 50.00 ppm): 98 % of control
- BUT (butyrate) ([1]; 50.00 ppm): 88 % of control
- ETOH (ethanol) ([1]; 50.00 ppm): 0 % of control
- IBU (isobutyrate) ([1]; 50.00 ppm): 111 % of control
- IVA (isovalerate) ([1]; 50.00 ppm): 87 % of control
- PRO (propionate) ([1]; 50.00 ppm): 154 % of control
- TOTAL (total volatile fatty acids) ([1]; 50.00 ppm): 104 % of control
- VAL ([1]; 50.00 ppm): 30 % of control
- % PR (percent propionate) [2]: 127 % of control
- ACE (acetate) [2]: 175 % of control
- BUT (butyrate) [2]: 105 % of control
- ETOH (ethanol) [2]: 0 % of control
- GLU (glucose) [2]: 181 % of control
- IBU (isobutyrate) [2]: 0 % of control
- IVA (isovalerate) [2]: 0 % of control
- LLA (L-lactate) [2]: 2 % of control
- LYS (lysine) [2]: 29 % of control
- PRO (propionate) [2]: 281 % of control
- TOTAL (total volatile fatty acids) [2]: 221 % of control
- VAL [2]: 0 % of control
